# According to patent publication US10906946B2, “Thrombin inhibitors” (priority 2015, dated 2021):
# Where “and” joins values, the source holds several entries; their conditions need not be identical. Equal entries are not always repeated. Peptide text beside a SMILES is read from it.
# Tests used:
# [1] = biological target: T1, thrombin (Homo sapiens, UniProt P00734); assay: Inhibition of thrombin fibrinogenolytic activity (fibrinogen clotting time); format: biochemical
# T1 construct: residues in the termini of the light chain; and in the autolysis loop and C-terminus of the heavy chain; purchased Chemo-Sero-Therapeutic Research Institute (Kaketsuken, Japan), as a gift, not bought
# Experimental: (§1) Thrombin amidolytic activity assays for all peptides were performed in 96-wells microtiter plates in 50 mM Tris buffer (pH 7.4) containing 100 mM NaCl and 1 mg/ml bovine serum albumin. Typically, 100 μl of peptide and 100 μl of thrombin were pre-incubated for different durations before 100 μl of S2238 was added to the reaction wells. The rates of formation of p-nitroaniline were followed by measuring the absorbance at 405 nm for 10 min with a Tecan InfinitePro M200 microplate reader from Tecan (Männedorf, Switzerland). Dose-response curves were fitted using the GraphPad Prizm software (San Diego, Calif., USA) to calculate IC50 values and Hill coefficients. To measure the inhibitory constants, different concentrations of S2238 were used and the residual velocities were determined using the Morrison's tight binding equation. Inhibition of thrombin fibrinogenolytic activity of peptides were tested by measuring absorbance at 650 nm using a Sunrise microplate reader from Tecan (Männedorf, Switzerland) as described previously [Koh C Y, et al., J Biol Chem 282: 29101-13 (2007)]. The selectivity of avathrin was examined against 13 serine proteases (FIG. 5). Effects of avathrin on the amidolytic activities of these serine proteases were determined using respective chromogenic substrates. Cleavage of avathrin by thrombin. Avathrin (150 μM) was incubated with thrombin (5 μM), in 50 mM Tris buffer (pH 7.4) containing 150 mM NaCl and 1 mg/ml BSA. After different incubation times, reactions were quenched with 1% TFA (pH 1.8) and loaded onto a Jupiter Proteo column (4 μm, 90 Å, 100×1.0 mm) attached to a Dionex nano-HPLC system from Thermo Fisher Scientific (Waltham, Mass., USA) and eluted using an acetonitrile gradient with 0.05% TFA and 99.95% MilliQ water as eluent A and 0.05% TFA, 19.95% MilliQ water and 80% ACN as eluent B. Masses of all peaks were measured to identify cleavage products, which were subsequently quantified by integrating the peaks and calculating the area under the curves. To measure the effect of different pre-incubation times on the thrombin inhibitory activity, amidolytic assays were performed for various incubation times (up to 36 h).
# [2] = biological target: T2, human α-thrombin (Homo sapiens, UniProt P00734); assay: Thrombin amidolytic activity assay with chromogenic substrate S2238; format: biochemical; details: for Hill slope of thrombin amidolytic inhibition: 0 min pre-incubation where stated; for IC50: IC50 of inhibition of thrombin amidolytic activity, S2238 100 μM, without pre-incubation (0 min) where stated; for Hill Slope: Table 2
# T2 construct: residues in the termini of the light chain; purchased Chemo-Sero-Therapeutic Research Institute (Kaketsuken, Japan), as a gift, not bought
# Experimental: as §1, with “Typically, 100 μl of peptide and 100 μl of thrombin were pre-incubated for different durations before 100 μl of S2238 was added to the reaction wells.” left out, “Cleavage of avathrin by thrombin.” left out
# [3] = biological target: T1, thrombin; assay: Cleavage of peptide by thrombin (RP-HPLC, ESI-MS); format: biochemical; details: peptide incubated with thrombin (30:1); listed as K10β-avathrin
# Experimental: A. Evaluation of avathrin cleavage by thrombin by HPLC chromatograms. Avathrin (150 μM) was incubated with thrombin (5 μM) for various times and the reaction mixtures were separated using RP-HPLC; the masses of the cleavage products were analyzed with ESI-MS. At 0 min (upper panel), a single peak corresponding to full length avathrin (mass 3139 Da) was identified. At 120 min (middle panel), two new peaks corresponding to N-terminal cleavage product (^1[…]^10 of SEQ ID NO: 1; mass 982 Da) and C-terminal cleavage product ([…] (SEQ ID NO: 4); mass 2176 Da) were identified in addition to avathrin peak. At 600 min (lower panel), two peaks corresponding to the N- and C-terminal cleaved products were observed while avathrin peak was not observed, indicating complete cleavage. B. Time-dependent cleavage of avathrin by thrombin. Relative percentages of avathrin, its N- and C-terminal cleavage products were quantified by calculating areas under the curve. Each data point is the mean±S.D. of at least three independent experiments. C. Effect of thrombin cleavage on inhibitory properties of avathrin. Avathrin was incubated with thrombin (0.81 nM) for up to 36 h, and assayed at different time points for its ability to inhibit thrombin amidolytic activity on the chromogenic substrate S2238. […]
# as §1, with “Typically, 100 μl of peptide and 100 μl of thrombin were pre-incubated for different durations before 100 μl of S2238 was added to the reaction wells.” left out, “Dose-response curves were fitted using the GraphPad Prizm software (San Diego, Calif., USA) to calculate IC50 values and Hill coefficients.” left out, “The selectivity of avathrin was examined against 13 serine proteases (FIG. 5).” left out, “Cleavage of avathrin by thrombin. Avathrin (150 μM) was incubated with thrombin (5 μM), in 50 mM Tris buffer (pH 7.4) containing 150 mM NaCl and 1 mg/ml BSA.” left out, “To measure the effect of different pre-incubation times on the thrombin inhibitory activity, amidolytic assays were performed for various incubation times (up to 36 h).” left out
# [4] = test system: FeCl3-induced carotid artery thrombosis; assay: Ferric chloride-induced carotid artery thrombosis model; format: in vivo, C57BL/6 male mice; details: mice, 10% FeCl3
# Experimental: All animal experiments were carried out under protocol 041/12 approved by Institutional Animal Care and Use Committee, National University of Singapore. The ferric chloride induced carotid artery thrombosis model was performed as described previously [Eckly A, et al., J Thromb Haemost 9: 779-89 (2011)] with minor modifications. Typically, C57BL/6 male mice (9-11 weeks old, 24.5-27.5 g) were anesthetized with an intraperitoneal injection of ketamine (75 mg/kg) and medetomidine (1 mg/kg). 100 μL of different doses of avathrin were injected into the mice via tail vein. The right carotid artery was dissected using blunt dissection and a vascular injury was caused applying filter paper of 2 mm×2 mm saturated with FeCl3 on top of the carotid artery. After 3 min, the filter paper was removed and the vessel was washed with sterile normal saline. To determine the time to occlusion, a miniature Doppler flow probe (Transonic Systems Inc., Ithaca, N.Y., USA) was placed around the carotid artery and blood flow was recorded using a Transonic® flow meter from ADInstruments (Dunedin, New Zealand). The maximal time for monitoring the blood flow after injury was 30 min. Mice were euthanized by cervical dislocation immediately after the completion of the experiment and prior to recovery from anesthesia.
Molecule,effect on fibrinogen clotting time / thrombin fibrinogenolytic activity [1],Hill slope of thrombin amidolytic inhibition [2],"Hill slope of thrombin amidolytic inhibition, 10 min pre-incubation ([2]; 10 min pre-incubation)",IC50 ([2]; thrombin 0.81 nM),Hill Slope [2],"Ki ([2]; inhibitory constant Ki for thrombin, thrombin 0.81 nM, various S2238 concentrations)",fold gain in activity compared with avathrin [2],time to complete cleavage by thrombin [3],time to occlusion (TTO) ([4]; 3 mg/kg intravenously),time to occlusion (TTO) ([4]; 10 mg/kg intravenously)
CC[C@H](C)[C@H](NC(=O)[C@H](CCCCN)NC(=O)[C@@H]1CCCN1C(=O)[C@@H](NC(=O)[C@H](C)NC(=O)[C@@H](NC(=O)[C@@H](N)CCC(N)=O)[C@@H](C)O)C(C)C)C(=O)N[C@@H](CO)C(=O)N[C@@H](CCCCN)C(=O)N[C@@H](CCC(N)=O)C(=O)NCC(=O)N[C@@H](CC(C)C)C(=O)NCC(=O)NCC(=O)N[C@@H](CC(=O)O)C(=O)N[C@@H](Cc1ccccc1)C(=O)N[C@@H](CCC(=O)O)C(=O)N[C@@H](CCC(=O)O)C(=O)N[C@H](C(=O)N1CCC[C@H]1C(=O)N[C@@H](CO)C(=O)N[C@@H](CC(=O)O)C(=O)N[C@@H](CCC(=O)O)C(=O)N[C@H](C(=O)N[C@H](C(=O)N[C@@H](CCC(=O)O)C(=O)O)[C@@H](C)CC)[C@@H](C)CC)[C@@H](C)CC [QT26] (H-QTAVPKISKQGLGGDFEEIPSDEIIE-OH; N-terminus and C-terminus assumed),inhibited,0.88±0.03,0.92±0.03,8.94 ± 0.64 nM,0.88 ± 0.03,0.7603 ± 0.00091 nM,,,,
CC[C@H](C)[C@H](NC(=O)[C@H](CCCNC(=N)N)NC(=O)[C@@H]1CCCN1C(=O)[C@@H](NC(=O)[C@H](C)NC(=O)[C@@H](NC(=O)[C@H](CCC(N)=O)NC(=O)[C@H](Cc1c[nH]cn1)NC(=O)CNC(=O)CNC(=O)[C@@H](N)CO)[C@@H](C)O)C(C)C)C(=O)N[C@@H](CO)C(=O)N[C@@H](CCCCN)C(=O)N[C@@H](CCC(N)=O)C(=O)NCC(=O)N[C@@H](CC(C)C)C(=O)NCC(=O)NCC(=O)N[C@@H](CC(=O)O)C(=O)N[C@@H](Cc1ccccc1)C(=O)N[C@@H](CCC(=O)O)C(=O)N[C@@H](CCC(=O)O)C(=O)N[C@H](C(=O)N1CCC[C@H]1C(=O)N[C@@H](CO)C(=O)N[C@@H](CC(=O)O)C(=O)N[C@@H](CCC(=O)O)C(=O)N[C@H](C(=O)N[C@H](C(=O)N[C@@H](CCC(=O)O)C(=O)O)[C@@H](C)CC)[C@@H](C)CC)[C@@H](C)CC [Peptide K10R] (H-SGGHQTAVPRISKQGLGGDFEEIPSDEIIE-OH; N-terminus and C-terminus assumed),,1.10±0.01,,1.15 ± 0.45 nM,1.10 ± 0.01,,5 fold,3 h,,
hirulog-1: peptidyl bivalent thrombin inhibitor used as comparator drug,,,,,,,,,9.70 ± 3.15 min and 9.76 ± 3.15 min,15.22 ± 3.39 min and 15.23 ± 3.39 min
